Holding throughout (assay type): in vivo
The subject of assay [1] is ABUTH. Kind of assay: Pre-emergence biological efficacy (Table 3). To be noted: Abutilon theophrasti, 312 h, after 13 days, read-out: evaluation (100=total damage to plant; 0=no damage to plant). On the procedure:
(§1) Seeds of weeds and/or crops were sown in standard soil in pots. After cultivation for one day under controlled conditions in a glasshouse (at 24/19° C., day/night; 16 hours light), the plants were sprayed with an aqueous spray solution derived from the formulation of the technical active ingredient in a small amount of acetone and a special solvent and emulsifier mixture referred to as AMA (11.12% Emulsogen EL360 TM+44.44% N-methylpyrrolidone+44.44% Dowanol DPM glycol ether), to create a 50 g/l solution which was then diluted using 0.2% Genapol X080 as diluent to give the desired final dose of test compound.
(§2) The test plants were then grown under controlled conditions in the glasshouse (at 24/18° C., day/night; 15 hours light; 50% humidity) and watered twice daily. After 13 days the test was evaluated (100=total damage to plant; 0=no damage to plant).

Assay [2] concerns AMARE. The assay is described as follows: Pre-emergence biological efficacy (Table 3). The conditions noted are these: Amaranthus retroflexus, 312 h, 1000 g/ha, after 13 days, read-out: evaluation (100=total damage to plant; 0=no damage to plant). On the procedure: as §1, §2
Assay [3] concerns ECHCG. Kind of assay: Pre-emergence biological efficacy (Table 3). The conditions noted are these: Echinochloa crus-galli, 312 h, 1000 g/ha, after 13 days, read-out: evaluation (100=total damage to plant; 0=no damage to plant). On the procedure: as §1, §2
In assay [4] the test system is IPOHE. Kind of assay: Pre-emergence biological efficacy (Table 3). The conditions noted are these: Ipomoea hederacea, 312 h, 1000 g/ha, after 13 days, read-out: evaluation (100=total damage to plant; 0=no damage to plant). On the procedure:
as §1, §2

Assay [5] concerns STEME. The assay is described as follows: Pre-emergence biological efficacy (Table 3). To be noted: 312 h, after 13 days, read-out: evaluation (100=total damage to plant; 0=no damage to plant). On the procedure:
as §1, §2

In assay [6] the test system is ZEAMX. The assay is described as follows: Pre-emergence biological efficacy (Table 3). To be noted: 312 h, 1000 g/ha, after 13 days, read-out: evaluation (100=total damage to plant; 0=no damage to plant). On the procedure:
as §1, §2

Assay [7] has as its system weeds and/or crops. Kind of assay: Post-emergence biological efficacy (Table 4). To be noted: 312 h, 1000 g/ha, evaluated after 13 days. On the procedure: as §1, with “14 days” for “one day”, “F50” for “AMA”
as §2

The mark [8] stands for this setting: STEME, read-out: damage to plant STEME (100=total damage; 0=no damage).
Where [9] appears, read: ZEAMX, read-out: damage to plant ZEAMX (100=total damage; 0=no damage).
[10] abbreviates: Amaranthus retroflexus, AMARE, read-out: damage to plant AMARE (100=total damage; 0=no damage).
Where [11] appears, read: Echinochloa crus-galli, ECHCG, read-out: damage to plant ECHCG (100=total damage; 0=no damage).
Setting [12] is: Ipomoea hederacea, IPOHE, read-out: damage to plant IPOHE (100=total damage; 0=no damage).
Where [13] appears, read: Abutilon theophrasti, ABUTH, read-out: damage to plant ABUTH (100=total damage; 0=no damage).

Where two headings read alike, the source gives them in different places.

Take `COc1cccc(C(F)(F)C(=O)O)c1Cl` [Compound 1-209, 2-(2-Chloro-3-methoxyphenyl)-2,2-difluoroacetic acid]: the pest or weed control at 1000 g/ha in assay [1] worked out at 60%; in assay [2], 70%; in assay [3] it was 0%; in assay [4], 80%; in assay [5], 60%; in assay [7] (setting [8]) it was 90%. The pest or weed control at 1000 g/ha in assay [7] (setting [9]) was 10%; in assay [7] (setting [10]), 80%; in assay [7] (setting [11]), 10%; in assay [7] (setting [12]), 80%. Also, the plant injury at 1000 g/ha in assay [6] is 0%.

Regarding `CSc1cccc(C(F)(F)C(=O)O)c1Cl` [Compound 1-220, 2-(2-Chloro-3-methylsulfanyl-phenyl)-2,2-difluoro-acetic acid], the pest or weed control at 1000 g/ha in assay [1] worked out at 80%; in assay [2], 50%; in assay [3], 0%; in assay [4] it was 70%; in assay [5], 50%; in assay [7] (setting [8]) it was 70%. Further, the pest or weed control at 1000 g/ha in assay [7] (setting [9]) was found to be 10%; in assay [7] (setting [10]) it was 70%; in assay [7] (setting [11]), 0%; in assay [7] (setting [12]) it was 70%. Further, the plant injury at 1000 g/ha in assay [6] turned out to be 10%.

`Nc1cc(Cl)cc(C(F)(F)C(=O)O)c1Cl` [Compound 1-235, 2-(3-Amino-2,5-dichlorophenyl)-2,2-difluoroacetic acid]: the pest or weed control at 1000 g/ha in assay [1] was 30%; in assay [2], 40%; in assay [3] it was 10%; in assay [4], 20%; in assay [5] it was 30%; in assay [7] (setting [8]), 50%. Also, the pest or weed control at 1000 g/ha came to 20% in assay [7] (setting [9]), 70% in assay [7] (setting [10]), 20% in assay [7] (setting [11]) and 30% in assay [7] (setting [12]). For the same compound, the plant injury at 1000 g/ha in assay [6] was 0%.

Consider `O=C(O)C(F)(F)c1cc(Cl)cc([N+](=O)[O-])c1Cl` [Compound 1-238, 2-(2,5-Dichloro-3-nitrophenyl)-2,2-difluoroaceticacid], for which the pest or weed control at 1000 g/ha came out at 0% in assay [1]; 0% in assay [2]; 0% in assay [3]; 0% in assay [4]; 0% in assay [5]; 40% in assay [7] (setting [8]). Moreover, the pest or weed control at 1000 g/ha in assay [7] (setting [9]) amounted to 0%; in assay [7] (setting [13]), 0%; in assay [7] (setting [10]) it was 30%; in assay [7] (setting [11]) it was 0%; in assay [7] (setting [12]), 0%. The plant injury at 1000 g/ha in assay [6] is 0%.

Take `Nc1c(Cl)cccc1C(F)(F)C(=O)O` [Compound 1-252, 2-(2-Amino-3-chloro-phenyl)-2,2-difluoro-acetic acid]: the pest or weed control at 1000 g/ha in assay [1] turned out to be 90%; in assay [2], 40%; in assay [3], 0%; in assay [4], 50%; in assay [5], 10%; in assay [7] (setting [8]), 90%. The pest or weed control at 1000 g/ha was found to be 10% in assay [7] (setting [9]); 80% in assay [7] (setting [13]); 20% in assay [7] (setting [10]); 0% in assay [7] (setting [11]); 70% in assay [7] (setting [12]). Besides, the plant injury at 1000 g/ha in assay [6] is 0%.

Regarding `N#Cc1c(Cl)cccc1C(F)(F)C(=O)O` [Compound 1-262, 2-(3-Chloro-2-cyano-phenyl)-2,2-difluoro-acetic acid], the pest or weed control at 1000 g/ha in assay [1] came to 90%; in assay [2], 90%; in assay [3], 0%; in assay [4] it was 90%; in assay [5], 100%; in assay [7] (setting [8]) it was 100%. The pest or weed control at 1000 g/ha in assay [7] (setting [9]) came to 20%; in assay [7] (setting [13]) it was 80%; in assay [7] (setting [10]), 90%; in assay [7] (setting [11]) it was 0%; in assay [7] (setting [12]), 70%. The plant injury at 1000 g/ha in assay [6] was determined as 40%.

For the compound `COc1c(F)cccc1C(F)(F)C(=O)O` [Compound 1-306, 2,2-Difluoro-2-(3-fluoro-2-methoxy-phenyl)acetic acid], the pest or weed control at 1000 g/ha was found to be 20% in assay [1]; 30% in assay [2]; 10% in assay [3]; 60% in assay [4]; 10% in assay [5]; 0% in assay [7] (setting [8]). In addition, the pest or weed control at 1000 g/ha in assay [7] (setting [9]) worked out at 10%; in assay [7] (setting [10]), 70%; in assay [7] (setting [11]) it was 0%; in assay [7] (setting [12]) it was 60%. Besides, the plant injury at 1000 g/ha in assay [6] worked out at 0%.

With `COc1c(F)ccc(F)c1C(F)(F)C(=O)O` [Compound 1-314, 2-(3,6-Difluoro-2-methoxyphenyl)-2,2-difluoroacetic acid], the pest or weed control at 1000 g/ha in assay [1], in assay [2], in assay [3], in assay [4], in assay [5] and in assay [7] (setting [8]) was 0% in each case. The pest or weed control at 1000 g/ha in assay [7] (setting [9]) was found to be 10%; in assay [7] (setting [13]), 0%; in assay [7] (setting [10]), 60%; in assay [7] (setting [11]), 0%; in assay [7] (setting [12]), 10%. In assay [6], the plant injury at 1000 g/ha is 0%.

In the case of `COc1c(Cl)cccc1C(F)(F)C(=O)O` [Compound 1-317, 2-(3-chloro-2-methoxy-phenyl)-2,2-difluoro-acetic acid], the pest or weed control at 1000 g/ha in assay [1] is 100%; in assay [2], 90%; in assay [3], 90%; in assay [4] it was 90%; in assay [5], 100%; in assay [7] (setting [8]), 100%. The pest or weed control at 1000 g/ha in assay [7] (setting [9]) is 60%; in assay [7] (setting [10]) it was 100%; in assay [7] (setting [11]), 60%; in assay [7] (setting [12]), 90%. In addition, the plant injury at 1000 g/ha in assay [6] was 70%.

Consider `CSc1c(Cl)cccc1C(F)(F)C(=O)O` [Compound 1-356, 2-(3-Chloro-2-(methylthio)phenyl)-2,2-difluoroacetic acid], for which the pest or weed control at 1000 g/ha turned out to be 30% in assay [1]; 50% in assay [2]; 0% in assay [3]; 50% in assay [4]; 30% in assay [5]; 70% in assay [7] (setting [8]). Further, the pest or weed control at 1000 g/ha in assay [7] (setting [9]) is 10%; in assay [7] (setting [13]), 60%; in assay [7] (setting [10]), 40%; in assay [7] (setting [11]) it was 0%; in assay [7] (setting [12]), 70%. Besides, the plant injury at 1000 g/ha in assay [6] amounted to 10%.

These data come from patent US20240251792A1, “WEED CONTROL METHOD” (SYNGENTA CROP PROTECTION AG, priority 2021, published 2024).
